Publication PMC9916925, “Copper (II) Species with Improved Anti-Melanoma and Antibacterial Activity by Inclusion in β-Cyclodextrin” (International Journal of Molecular Sciences, 2023)
Values after ≈ are worked out from the molar mass of the structure shown. Read-outs that look alike come from different tables or passages of the source.

Experiments:
L929 fibroblasts [1] = experiment: MTT cellular viability assay, L929 fibroblasts; format: cell-based, mouse; settings: L929, 24 or 48 h, concentrations up to 25 µg/mL
Method: Mouse fibroblast cell line L929 (CCL-1, ATCC, USA) and mouse melanoma cell B16 (ATCC CRL-6475, USA) were grown in DMEM (Dulbecco’s Modified Eagle Medium) supplemented with 2 mM L-Glutamine, 10% fetal calf serum (FCS), 100 units/mL of penicillin, and 100 µg/mL of streptomycin. They were kept at 37 °C in a humidified incubator under an atmosphere containing 5% CO2. All cell-cultivation media and reagents were purchased from Biochrom AG (Berlin, Germany) and Sigma-Aldrich (Darmstadt, Germany).
To test cellular viability, we used the MTT assay (3-(4,5-dimethylthiazol-2-yl)-2,5-diphenyltetrazolium bromide) colorimetric assay as previously described. Briefly, L929 and B16 cells were seeded in 96-well plates at a density of 5000 cells/well and grown in the culture medium for 24 h. […] The absorbance of the samples was recorded at λ = 570 nm using a plate reader (Mithras 940, Berthold, Bad Wildbad, Germany). The data were corrected for background absorbance, and the viability was calculated using the following formula:% viable cells = [(A570 of treated cells)/(A570 of untreated cells)] × 100 (%)
Half-maximal inhibitory concentration (IC50) was determined by fitting the data with a sigmoidal logistic function using Origin 8.1 (Microcal Inc., Northampton, MA, USA) software.

[2] = test system: Staphylococcus aureus ATCC 25923; experiment: Microdilution MIC assay, planktonic S. aureus; format: cell-based; settings: S. aureus 25923, planktonic cells, this paper
Method: (§1) The antibacterial activity of the inclusion complexes was evaluated on the Gram-negative Escherichia coli ATCC 25922 and Gram-positive Staphylococcus aureus ATCC 25923 reference bacterial strains. The antibacterial activity of the β-CD, precursor complexes, and inclusion complexes was evaluated against planktonic and biofilm-embedded cells to obtain the minimum inhibitory (MIC) and minimum biofilm eradication (MBEC) concentrations, respectively. The antibacterial activity assays were carried out on the Gram-negative E. coli ATCC 25922 and the Gram-positive S. aureus ATCC 25923 reference strains. The antimicrobial activity of the β-CD inclusion complexes versus the β-CD and Cu(II) complexes against planktonic bacterial cells was assessed using the microdilution assay, allowing MIC determination. Anti-biofilm activity was evaluated using the crystal-violet microtiter to determine the MBEC [25]. All experiments were performed in triplicate. In both assays, serial binary concentrations ranging from 8.81 to 0.013 mM were used.

[3] = test system: Escherichia coli ATCC 25922; experiment: Microdilution MIC assay, planktonic E. coli; format: cell-based; settings: this paper
Method: as §1

L929 cells = experiment: Cell cycle analysis by flow cytometry, L929; format: cell-based, mouse; settings: L929, 24 h, 1.56 and/or 6.25 µg/mL
Method: (§2) A flow cytometry analysis was used to check the possible influence of the tested compounds on the cell cycle of both cellular lines L929 and B16. Before treatment, 25,000 cells per well were seeded in 24-well plates and treated with 2 concentrations of the compounds (1.56 and 6.25 µg/mL) for 24 h. After treatment, cells were detached, washed with cold PBS, and then resuspended in cold PBS mixed with 100% ethanol and kept at −20 °C for at least 24 h for fixation. The following day, the cells were stained using a 0.1% Triton-X in PBS containing 0.2 mg/mL RNAase and 20 µg/mL propidium iodide. The samples were incubated for 30 min at 37 °C in the dark. After incubation with the staining solution, the cells were washed with PBS and resuspended in 100 µL PBS. The cell cycle measurement was made using CytoFLEX (Beckman Coulter, Brea, CA, USA) by recording 30,000 events/sample. All experiments were made in triplicate, each having at least 2 wells per condition. The data was evaluated using the CytoFLEX software.

B16 cells = experiment: Cell cycle analysis by flow cytometry, B16; format: cell-based, mouse; settings: B16, 24 h, irrespective of the tested concentration (1.56 and/or 6.25 µg/mL)
Method: as §2

[4] = format: physicochemical
Text: Compound (1) follows a linear profile described in the literature as an AL type, according to Higuchi and Connors. This behavior corresponds to a molar ratio of 1:1 between (1a) and β-CD, similar to that obtained using Job’s method. […] This value confirms that the equilibrium between (1) and β-CD shifts to the product, indicating a high tendency of (1) to enter the cavity of β-CD together with good stability of the (1a)@β-CD complex. […] Higuchi described this model as being AP, meaning a positive deviation from the linearity, corresponding to a 1:2 molar ratio between (2) and β-CD, in very good agreement with results obtained by Job’s method. This type of stoichiometry literature indicates a possibility of evaluating the stability constant starting from the equation of a quadratic model. Even if this is not a perfect model and the value calculated is affected by an error ~30%, reliable information about the stability of the (2a)@β -CD complex could be obtained. The model ensures the calculation of K1:1 and K1:2. The obtained values were 20.44 and 6 M^–1.
The method settled for phase-solubility studies was adapted from a previous paper. First, calibration curves for (1) and (2) were obtained. For this purpose, successive dilutions from the stock solution were performed, spectra were recorded and absorbance reeded 312 nm (1) and 272 nm (2). The plot of absorbance versus concentration gives two straight lines for both (1) and (2) complexes: y = 0.5111x − 0.0323 (R^2 = 0.9996) and y = 18.792x − 0.0323 (R^2 = 0.9996), respectively. Second, water and β-CD 20 mM were added to six samples containing an excess of complex (50 mg) that had the same volume but increasing β-CD concentration. In all experiments, the final volume was 5 mL. The samples were shaken for 1 h, filtered using 0.25 µm PTFE, and the solution was diluted to 1:25 mL before the spectra were recorded. The concentration of the complex in each solution was calculated using a calibration curve described above. In the end, the phase solubility diagrams were obtained by plotting the concentration of the complex versus the concentration of β-CD. The stability constants were calculated from the phase-solubility diagram as follows: (i) Kc = slope/[So × (1 − slope)], where So is the complex’s solubility in the absence of β-CD, for a 1:1 mole ratio, and (ii) STotal = S0 + K1:1[β-CD] + K1:1K1:2[β-CD]^2, where K1:1 and K1:2 are constants for 1:1 and 1:2 host–guest complexes and STotal is the total solubility of complex, for a 1:2 stoichiometry.

[5] = test system: Escherichia coli ATCC 25922; parameters: method as in PMID 34833864; settings: E. coli, planktonic cells; ref [25]; cited from earlier work
[6] = test system: Staphylococcus aureus ATCC 25923; parameters: method as in PMID 34833864; settings: S. aureus 25923, planktonic cells; ref [25]; cited from earlier work
B16 melanoma cells = test system: B16 melanoma cells; parameters: method as in PMID 34833864; settings: ref [25], cited from earlier work
biofilm-embedded cells = experiment: Crystal-violet microtiter anti-biofilm assay (MBEC); format: cell-based
Method: as §1

[7] = parameters: method as in PMID 34833864; settings: ref [25]; cited from earlier work
L929 fibroblasts [8] = test system: L929 fibroblasts; parameters: method as in PMID 34833864; settings: L929, time not stated; ref [25]; cited from earlier work

For `OC[C@H]1O[C@@H]2O[C@H]3[C@H](O)[C@@H](O)[C@@H](O[C@H]4[C@H](O)[C@@H](O)[C@@H](O[C@H]5[C@H](O)[C@@H](O)[C@@H](O[C@H]6[C@H](O)[C@@H](O)[C@@H](O[C@H]7[C@H](O)[C@@H](O)[C@@H](O[C@H]8[C@H](O)[C@@H](O)[C@@H](O[C@H]1[C@H](O)[C@H]2O)O[C@@H]8CO)O[C@@H]7CO)O[C@@H]6CO)O[C@@H]5CO)O[C@@H]4CO)O[C@@H]3CO` [β-CD, β-cyclodextrin], the “effect on viability of normal fibroblast cells” value (L929 fibroblasts [1]) was “did not affect the viability”, the MIC [2] was “no activity” and the MIC ([2]; Staphylococcus aureus, ATCC25923, read-out: MIC) was 8.81 mM (≈ 10000 µg/mL). The MIC ([3]; Escherichia coli, ATCC25922, planktonic cells, read-out: MIC) was 8.81 mM (≈ 10000 µg/mL), the MIC ([3]; planktonic cells) was “no activity” and the “change of number of cells in either cell cycle phase” value (L929 cells) was “did not significantly alter”. For the same compound, the “change of number of cells in cell cycle phases” value (B16 cells) was “did not significantly alter”.
For “[Cu(bipy)(dmtp)2(OH2)](ClO4)2@β-CD [(1a)@β-CD]”, the “Kc (stability constant, 1:1)” value [4] was 250 M^–1.
In the case of “[Cu(bipy)(dmtp)2(OH2)](ClO4)2·dmtp [(1)]”, the “solubilization in water in the presence of β-CD” value [4] is listed as “solubilized in water”, the MIC [5] is listed as 0.71 mM and the MIC [6] is listed as 0.18 mM. For the same compound, the “IC50 against B16 cells” value (B16 melanoma cells; B16, previous study) was “no IC50 could be calculated” and the antibiofilm activity (biofilm-embedded cells) was “exhibit antibiofilm activity”.
With “[Cu(phen)(dmtp)2(OH2)](ClO4)2@β-CD [(2a)@β-CD]” the “K1:1 (stability constant)” value [4] was 20.44 M^–1 and the “K1:2 (stability constant)” value [4] was 6 M^–1.
For “[Cu(phen)(dmtp)2(OH2)](ClO4)2·dmtp [(2)]”, the “solubilization in water in the presence of β-CD” value [4] is given as “solubilized in water”, the “scavenging of OH· radicals” value [7] is given as “not observed” and the MIC [5] is given as 0.34 mM. The IC50 (L929 fibroblasts [8]) was 15 µM, the “IC50 L929” value (L929 fibroblasts [8]) was 13.61 µg/mL and the MIC [6] was 0.04 mM. The “IC50 against B16 cells 24 h” value (B16 melanoma cells; B16, 24 h) was 6.88 µg/mL, the IC50 (B16 melanoma cells; B16, 24 h, read-out: IC50 against B16 cells 24 h) was 7.6 µM and the “IC50 against B16 cells 48 h” value (B16 melanoma cells; B16, 48 h) was 4.15 µg/mL. For the same compound, the IC50 (B16 melanoma cells; B16, 48 h, read-out: IC50 against B16 cells 48 h) was 4.58 µM and the antibiofilm activity (biofilm-embedded cells) was “exhibit antibiofilm activity”.
